The results in this text go back to patent publication US4810709A, “Nintrovincaminic acid derivatives having pharmaceutical utility” (Richter Gedeon Vegyeszefi Gyar R.T., priority 1984, dated 1989).

Data set [1] relates to femoral artery. In words: extremital blood flow in the femoral artery of anaesthetized dogs (vasodilating effect). As to conditions: 1 mg/kg of body-weight intravenous, chloralose-pentobarbital anaesthetized dogs. Type of data set: in vivo. Here is the method: (§1) The vasodilating effect was studied in dogs anaesthetized by a chloralose-pentobarbital mixture. […] Electromagnetic flow meters were used for measuring the blood flow. The substances under test were intravenously administered in a dose of 1 mg/kg of body-weight to 6 dogs and the percentage changes of the parameters measured were evaluated. Ethyl (+)-apovincamate, a commonly used therapeutic cerebral vasodilator was employed as reference drug.

Data set [2] deals with internal carotid artery. In words: cerebral blood flow in the internal carotid artery of anaesthetized dogs (vasodilating effect). As to conditions: 1 mg/kg of body-weight intravenous, chloralose-pentobarbital anaesthetized dogs. Type of data set: in vivo. Here is the method: as §1
The test system of data set [3] is conscious mice under normobaric hypoxia. In words: antihypoxic activity on conscious mice under normobaric hypoxia. Type of data set: in vivo. As to conditions: 50 mg/kg i.p.; for Time of survival, % / Time of survival, Mean ± deviation: 96% nitrogen and 4% oxygen; for Time of survival, %: increase over control; for Time of survival, Mean ± deviation: 30 minutes before, control 6.0 ± 1.04 min; for Protection: protected = alive for twofold time of untreated animals. Here is the method: According to one method, the antihypoxic activity was studied on conscious mice under normobaric hypoxia. Five male mice were placed in a glass cylinder of 3 liters volume flown through by a gas mixture containing 96% of nitrogen and 4% of oxygen. The time interval from the allocation up to the perishment of the animals was measured for 15 minutes as a maximum. The animals were considered as protected when they were alive for a twofold time length as compared to the time of perishment of the untreated animals. The compounds under test were intraperitoneally administered to 10 animals each in a dose of 50 mg/kg of body-weight 30 minutes before allocating in the glass cylinder.

The subject of data set [4] is isolated guinea pig ileum. In words: Inhibition of barium-chloride-induced contraction of guinea pig ileum (spasmolytic activity). As to conditions: for IC50: Cavia porcellus, read-out: ED50, inhibition of barium-chloride-induced contraction of guinea pig ileum. On the procedure: The spasmolytic activity of the compounds was determined by using the traditional method, i.e. on the isolated guinea pig ileum [Magnus, R., Pflugers Arch. 102, 123 (1904)]. Papaverine and ethyl (+)-apovincamate used as therapeutic spasmolytics were used as reference drugs.

In data set [5] the test system is mice. In words: metrazole seizure method (anticonvulsive). Type of data set: in vivo. As to conditions: Mus musculus, po; 125 mg/kg s.c. pentylenetetrazole; p.o.; read-out: Anticonvulsive effect, Metrazole seizure ED50. On the procedure:
On using the metrazole seizure method [Everett, G. M. and Richards, R. K.: J. Pharmacol. Exp. Ther., 81, 402 (1944)], a subcutaneous dose of 125 mg/kg of pentylenetetrazole was administered to mice after pre-treatment. The persistant clonic convulsions as well as the tonic extensory convulsions abolished by the treatment were registered.

Data set [6] is described as follows: in vivo. The note with it: po. Here is the method: On using the muscle incoordination model (rotarod method) [H. Kwibara et al.: Japan J. Pharmacol. 27, 117 (1977)], after a previous training the animals were selected which could […] for 120 seconds on a horizontal rod of 20 mm in diameter rotating with 12 rpm. A muscle-incoordinating action was stated when the animals fell down from the rotating rod within the time limits.

A short description of data set [7]: asphyxic anoxia test. It counts as in vivo. As to conditions: 1 h; oral, one hour before; protected = survival longer by 30% than control. Here is the method:
According to the asphyxic anoxia test [Caillard O. et al.: Life Sci. 16, 1607 (1975(], the animals were starved for 16 hours, then treated orally, and one hour following the treatment they were allocated in tightly closed glass bottles of 100 ml volume. The time of survival was registered as the time interval from closing the bottle up to the last respiration. The animals were considered as protected when they were alive for a time longer by 30% than the average time of survival of the control group.
(§2) According to the hypobaric hypoxia test [Baumel J. et al.: Proc. Soc. Bio. N.Y. 132, 629 (1969)], the animals were starved for 16 hours, then treated orally and one hour following the treatment they were allocated in an exsiccator where the pressure was decreased to 170 Hgmm within 20 seconds. The time of survival was registered from this time point up to the last respiration. The animals were considered as protected when they were alive for a time longer by 100% than the average time of survival of the control group. The ED50 value (i.e. the dose which was effective in 50%) was calculated from the percentage of the protected animals by using the probit analysis method.

A short description of data set [8]: in vivo. Further details: species or system mice. As to conditions: mouse, po. The text has this: On determining the muscle relaxant activity (traction test), male mice weighing 18 to 22 g were suspended by their upper legs on a horizontal wire of 5 mm in diameter.
Data set [9] in a line: hypobaric hypoxia test. As to conditions: 1 h; oral, one hour before, 170 Hgmm; protected = survival longer by 100% than control. Type of data set: in vivo. On the procedure:
as §2

In data set [10] the test system is mice. As to the kind of experiment: maximal electroshock model (anticonvulsive). Type of data set: in vivo. The note with it: Mus musculus, po; 20 mA, 0.2 sec.; p.o.; read-out: Anticonvulsive effect, Max. electroshock ED50. The text has this:
On using the maximal electroshock model [Swinyard E. A. et at.: J. Pharmacol. Exp. Ther. 106, 319 (1959)], a shock (20 mA, 0.2 sec. HSE Shock Equipment Type 207) was given to mice weighing 22 to 24 g by using corneal electrodes. The animals were considered as protected the tonic extension of the lower extremities of which were abolished.
On the technique in general: Protection in the maximal electroshock model is a classic sign of anticonvulsant action.

Setting [11] is: isolated guinea pig ileum, barium chloride.

Converted amounts (≈) assume the structure as drawn. Structures can show the parent of a compound that is named as a salt. Where two headings read alike, the source gives them in different places.

Regarding `CCC12C=C(C(=O)OCCO)n3c4c(c5c([N+](=O)[O-])cccc53)CCN(CCC1)C42` (single isomer, unassigned) [2-Hydroxyethyl 9-nitroapovincamate, 2-hydroxyethyl 9-nitroapovincamate], the “Circulatory effects (change in %): Femoral flow” value in data set [1] is on record as “+10%”. Also, the “Circulatory effects (change in %): Carotid artery flow” value in data set [2] is “+45%”.

On to `CCOC(=O)C1=CC2(CC)CCCN3CCc4c(n1c1cccc([N+](=O)[O-])c41)C32` (single isomer, unassigned) [Ethyl 9-nitroapovincamate, ethyl 9-nitroapovincamate], for which, in [3], the “Time of survival, %” value came to 123%; the “Time of survival, Mean ± deviation” value is 13.4 ± 2.37 min; the Protection worked out at 80%. Also, the “Circulatory effects (change in %): Femoral flow” value in data set [1] was determined as 0%. Besides, in data set [2], the “Circulatory effects (change in %): Carotid artery flow” value was “+95%”. Moreover, in [4] (setting [11]), the IC50 worked out at 1 µg/mL (≈ 2.53 µM).

`CCOC(=O)C1=CC2(CC)CCCN3CCc4c(n1c1cc([N+](=O)[O-])ccc41)C32` (single isomer, unassigned) [Ethyl 11-nitroapovincamate, ethyl 11-nitroapovincamate]: in data set [3], the “Time of survival, %” value worked out at 83%; the “Time of survival, Mean ± deviation” value stood at 11.0 ± 3.35 min; the Protection came out at 50%.

For orientation: ED50 means the dose at which the effect has come halfway, by size or by number of responders. With `CCOC(=O)C1=CC2(CC)CCCN3CCc4c(n1c1cccc([N+](=O)[O-])c41)C32` (single isomer, unassigned) [ethyl 9-nitroapovincamate monohydrochloride], the ED50 in data set [5] was 27.6 mg/kg; in data set [7] it was 42.7 mg/kg; in data set [9] it was > 50 mg/kg; in data set [10], 25.6 mg/kg. Besides, the TD50 in [6] and in [8] was > 180 mg/kg throughout.

`CCOC(=O)C1=C[C@]2(CC)CCCN3CCc4c(n1c1ccccc41)[C@@H]32` [Ethyl (+)-apovincamate, reference compound]: in data set [3], the “Time of survival, %” value is given as 7% and the “Time of survival, Mean ± deviation” value worked out at 6.4 ± 1.58 min. The “Circulatory effects (change in %): Femoral flow” value in data set [1] is on record as “+15%”. For the same compound, the ED50 in data set [7] is > 50 mg/kg. The “Circulatory effects (change in %): Carotid artery flow” value in [2] is reported as “+30%”. The ED50 in [9] is > 50 mg/kg. In data set [4] (setting [11]), the IC50 stood at 2 µg/mL (≈ 5.71 µM).

Turning to `CCC1(c2ccccc2)NC(=O)N(C)C1=O` (centres unmarked) [Mephenytoin], the TD50 in [6] worked out at 78.6 mg/kg. Besides, the median effective dose (ED50) in data set [7] and in data set [9] was > 80 mg/kg in each case.

Consider `COc1ccc(Cc2nccc3cc(OC)c(OC)cc23)cc1OC` [Papaverine, reference compound], for which, in data set [4], the IC50 was determined as 5.4 µg/mL (≈ 15.9 µM).

Take `CCCOC(=O)C1=C[C@]2(CC)CCCN3CCc4c(n1c1cccc([N+](=O)[O-])c41)[C@@H]32` [Propyl 9-nitroapovincamate]: the “ED50, inhibition of barium-chloride-induced contraction of guinea pig ileum” value in [4] (setting [11]) came out at 0.2 µg/mL.

Turning to `CC[C@]12CCCN3CCc4c(n(c5ccccc45)[C@@](O)(C(=O)OC)C1)[C@@H]32` [Vincamine, reference compound], in data set [3], the “Time of survival, %” value is on record as 2% and the “Time of survival, Mean ± deviation” value is 6.1 ± 1.30 min.

For Acetoxyethyl 9-nitroapovincamate, in data set [3], the “Time of survival, %” value worked out at 68%; the “Time of survival, Mean ± deviation” value stood at 10.1 ± 3.51 min; the Protection turned out to be 30%. Also, the “ED50, inhibition of barium-chloride-induced contraction of guinea pig ileum” value in data set [4] (setting [11]) worked out at 0.4 µg/mL.
